Where two headings read alike, the source gives them in different places.
Columns and labels:
[1] = log P determination by HPLC (EEC Directive 79/831 Annex V.A8, gradient method); format: physicochemical; conditions: HPLC, gradient method, acetonitrile/0.1% strength aqueous phosphoric acid or formic acid
[2] = tested on: Sphaerotheca fuliginea; experiment: Sphaerotheca test (cucumber)/protective; format: in vivo; conditions: application rate 500 ppm, protective, evaluation 7 days after inoculation
Method: [table] To produce a suitable preparation of active compound, 1 part by weight of active compound is mixed with the stated amounts of solvent and emulsifier, and the concentrate is diluted with water to the desired concentration. To test for protective activity, young cucumber plants are sprayed with the preparation of active compound at the stated application rate. 1 day after the treatment, the plants are inoculated with a spore suspension of Sphaerotheca fuliginea. The plants are then placed in a greenhouse at 70% relative atmospheric humidity and a temperature of 23° C. Evaluation is carried out 7 days after the inoculation. 0% means an efficacy which corresponds to that of the control, whereas an efficacy of 100% means that no infection is observed.

[3] = tested on: larvae of the mustard beetle (Phaedon cochleariae); experiment: Phaedon test, PHAECO spray treatment; format: in vivo; conditions: foliar, 168 h, 500 g a. i./ha, spray treatment of Chinese cabbage leaf discs, 7 d, read-out: % 7 d (effect in %, beetle larvae killed)
Method: (§1) [table] To produce a suitable preparation of active compound, 1 part by weight of active compound is mixed with the stated amounts of solvents and emulsifier, and the concentrate is diluted with emulsifier-containing water to the desired concentration. Discs of Chinese cabbage leaves (Brassica pekinensis) are sprayed with a preparation of active compound of the desired concentration and, after drying, populated with larvae of the mustard beetle (Phaedon cochleariae). After the desired period of time, the effect in % is determined. 100% means that all beetle larvae have been killed; 0% means that none of the beetle larvae have been killed.

[4] = tested on: caterpillars of the army worm (Spodoptera frugiperda); experiment: Spodoptera frugiperda test, SPODFR spray treatment; format: in vivo; conditions: foliar, 168 h, 500 g a. i./ha, spray treatment of maize leaf discs, 7 d, read-out: % 7 d (effect in %, caterpillars killed)
Method: as §1, with “maize” for “Chinese cabbage”, “(Zea mays)” for “(Brassica pekinensis)”, “caterpillars” for “larvae”, “army worm (Spodoptera frugiperda).” for “mustard beetle (Phaedon cochleariae).”, “caterpillars” for “beetle larvae”

[5] = tested on: Botrytis cinerea; experiment: Botrytis test (bean)/protective; format: in vivo; conditions: application rate 500 ppm, protective, evaluation 2 days after inoculation
Method: [table] To produce a suitable preparation of active compound, 1 part by weight of active compound is mixed with the stated amounts of solvents and emulsifier, and the concentrate is diluted with water to the desired concentration. To test for protective activity, young plants are sprayed with the preparation of active compound at the stated application rate. After the spray coating has dried on, 2 small pieces of agar colonized by Botrytis cinerea are placed onto each leaf. The inoculated plants are placed in a dark chamber at about 20° C. and 100% relative atmospheric humidity. 2 days after the inoculation, the size of the infected areas on the leaves is evaluated. 0% means an efficacy which corresponds to that of the control, whereas an efficacy of 100% means that no infection is observed.

C=CCN(C)C(=O)/C=C/c1c(-c2ccc(Cl)cc2)nc2sc(C(F)(F)F)nn12 [Example 0067]
chromatographic logP ([1]; read-out: Physical data (logP)): 3.95 | Efficacy in % [2]: 90%

O=C(/C=C/c1c(-c2cccc(Cl)c2)nc2sc(C(F)(F)F)nn12)N1CCOCC1 [Example 0142]
chromatographic logP ([1]; read-out: Physical data (logP)): 3.31 | pest or weed control at 500 g/ha [3]: 100%

CC(C)NC(=O)/C=C/c1c(-c2ccccc2Cl)nc2sc(C(F)(F)F)nn12 [Example 0148]
chromatographic logP ([1]; read-out: Physical data (logP)): 3.13 | pest or weed control at 500 g/ha [3]: 83% | pest or weed control at 500 g/ha [4]: 100%

O=C(/C=C/c1c(-c2ccccc2Cl)nc2sc(C(F)(F)F)nn12)NC1CC1 [Example 0152]
chromatographic logP ([1]; read-out: Physical data (logP)): 2.88 | pest or weed control at 500 g/ha [3]: 100%

O=C(/C=C/c1c(-c2ccccc2Cl)nc2sc(C(F)(F)F)nn12)NCC1CC1 [Example 0166]
chromatographic logP ([1]; read-out: Physical data (logP)): 3.26 | pest or weed control at 500 g/ha [3]: 100%

CC(NC(=O)/C=C/c1c(-c2ccccc2Cl)nc2sc(C(F)(F)F)nn12)c1ccccn1 (centres unmarked) [Example 0203]
chromatographic logP ([1]; read-out: Physical data (logP)): 2.39 | pest or weed control at 500 g/ha [3]: 83% | pest or weed control at 500 g/ha [4]: 100%

CC(NC(=O)/C=C/c1c(-c2cccc(C(F)(F)F)c2)nc2sc(C(F)(F)F)nn12)c1ccccn1 (centres unmarked) [Example 0416]
chromatographic logP ([1]; read-out: Physical data: log P): 3.03 | pest or weed control at 500 g/ha [3]: 100%

O=C(/C=C/c1c(-c2ccc(F)cc2Cl)nc2sc(C(F)(F)F)nn12)NC1CC1 [Example 0585]
chromatographic logP ([1]; read-out: Physical data: log P): 3.03 | pest or weed control at 500 g/ha [3]: 100% | pest or weed control at 500 g/ha [4]: 100%

CCCC(C)NC(=O)/C=C/c1c(-c2ccc(F)cc2Cl)nc2sc(C(F)(F)F)nn12 (centres unmarked) [Example 0591]
chromatographic logP ([1]; read-out: Physical data: log P): 4.02 | pest or weed control at 500 g/ha [4]: 100%

COCC(C)NC(=O)/C=C/c1c(-c2ccc(F)cc2Cl)nc2sc(C(F)(F)F)nn12 (centres unmarked) [Example 0592]
chromatographic logP ([1]; read-out: Physical data: log P): 3.11 | pest or weed control at 500 g/ha [4]: 100%

CC(C)C(C)NC(=O)/C=C/c1c(-c2ccc(F)cc2Cl)nc2sc(C(F)(F)F)nn12 (centres unmarked) [Example 0597]
chromatographic logP ([1]; read-out: Physical data: log P): 3.9 | pest or weed control at 500 g/ha [4]: 100%

CC(NC(=O)/C=C/c1c(-c2ccc(F)cc2Cl)nc2sc(C(F)(F)F)nn12)C(F)(F)F (centres unmarked) [Example 0598]
chromatographic logP ([1]; read-out: Physical data: log P): 3.79 | pest or weed control at 500 g/ha [3]: 100% | pest or weed control at 500 g/ha [4]: 100%

CC(C)C(NC(=O)/C=C/c1c(-c2ccc(F)cc2Cl)nc2sc(C(F)(F)F)nn12)C(F)(F)F (centres unmarked) [Example 0599]
chromatographic logP ([1]; read-out: Physical data: log P): 4.37 | pest or weed control at 500 g/ha [4]: 100%

O=C(/C=C/c1c(-c2ccc(F)cc2Cl)nc2sc(C(F)(F)F)nn12)NCC(F)(F)F [Example 0603]
chromatographic logP ([1]; read-out: Physical data: log P): 3.51 | pest or weed control at 500 g/ha [4]: 100%

O=C(/C=C/c1c(-c2ccc(F)cc2Cl)nc2sc(C(F)(F)F)nn12)NCCC(F)(F)F [Example 0604]
chromatographic logP ([1]; read-out: Physical data: log P): 3.51 | pest or weed control at 500 g/ha [4]: 100%

C[C@@H](NC(=O)/C=C/c1c(-c2ccc(F)cc2Cl)nc2sc(C(F)(F)F)nn12)C(F)(F)F [Example 0608]
chromatographic logP ([1]; read-out: Physical data: log P): 3.77 | pest or weed control at 500 g/ha [4]: 100%

O=C(/C=C/c1c(-c2ccc(F)cc2Cl)nc2sc(C(F)(F)F)nn12)NCC(F)(F)C(F)(F)F [Example 0610]
chromatographic logP ([1]; read-out: Physical data: log P): 3.97 | pest or weed control at 500 g/ha [4]: 100%

O=C(/C=C/c1c(-c2ccc(F)cc2Cl)nc2sc(C(F)(F)F)nn12)Nc1ccc(F)cc1 [Example 0624]
chromatographic logP ([1]; read-out: Physical data: log P): 4.17 | pest or weed control at 500 g/ha [4]: 100%

CCC(CC)NC(=O)/C=C/c1c(-c2ccc(F)cc2Cl)nc2sc(C(F)(F)F)nn12 [Example 0638]
chromatographic logP ([1]; read-out: Physical data: logP): 3.89 | pest or weed control at 500 g/ha [4]: 100%

COc1ccc(-c2nc3sc(C(F)(F)F)nn3c2/C=C/C(=O)NC(C)(C)C)cc1OC [Example 0654]
chromatographic logP ([1]; read-out: Physical data: logP): 3.37 | pest or weed control at 500 g/ha [3]: 100%

CC(C)NC(=O)/C=C/c1c(-c2ccccc2Cl)nc2sc(C(F)(F)Cl)nn12 [Example 0724]
chromatographic logP ([1]; read-out: Physical data: logP): 3.36 | pest or weed control at 500 g/ha [3]: 100% | pest or weed control at 500 g/ha [4]: 100%

O=C(/C=C/c1c(-c2ccccc2Cl)nc2sc(C(F)(F)Cl)nn12)NC1CC1 [Example 0728]
chromatographic logP ([1]; read-out: Physical data: logP): 3.07 | pest or weed control at 500 g/ha [3]: 100% | pest or weed control at 500 g/ha [4]: 100%

CC(NC(=O)/C=C/c1c(-c2cc(Cl)ccc2Cl)nc2sc(C(F)(F)F)nn12)C(F)(F)F (centres unmarked) [Example 0729]
pest or weed control at 500 g/ha [3]: 100%

CCC(C)NC(=O)/C=C/c1c(-c2ccccc2Cl)nc2sc(C(F)(F)Cl)nn12 (centres unmarked) [Example 0733]
chromatographic logP ([1]; read-out: Physical data: logP): 3.67 | pest or weed control at 500 g/ha [4]: 100%

CCCC(C)NC(=O)/C=C/c1c(-c2ccccc2Cl)nc2sc(C(F)(F)Cl)nn12 (centres unmarked) [Example 0734]
chromatographic logP ([1]; read-out: Physical data: logP): 4.06 | pest or weed control at 500 g/ha [3]: 100% | pest or weed control at 500 g/ha [4]: 100%

CC(C)C(C)NC(=O)/C=C/c1c(-c2ccccc2Cl)nc2sc(C(F)(F)Cl)nn12 (centres unmarked) [Example 0740]
chromatographic logP ([1]; read-out: Physical data: logP): 3.97 | pest or weed control at 500 g/ha [4]: 100%

CC(NC(=O)/C=C/c1c(-c2ccccc2Cl)nc2sc(C(F)(F)Cl)nn12)C(F)(F)F (centres unmarked) [Example 0741]
chromatographic logP ([1]; read-out: Physical data: logP): 3.8 | pest or weed control at 500 g/ha [4]: 100%

O=C(/C=C/c1c(-c2ccccc2Cl)nc2sc(C(F)(F)Cl)nn12)Nc1ccc(F)cc1 [Example 0767]
chromatographic logP ([1]; read-out: Physical data: logP): 4.19 | pest or weed control at 500 g/ha [4]: 100%

CCC(CC)NC(=O)/C=C/c1c(-c2ccccc2Cl)nc2sc(C(F)(F)Cl)nn12 [Example 0781]
chromatographic logP ([1]; read-out: Physical data: logP): 3.95 | pest or weed control at 500 g/ha [4]: 100%

CC(NC(=O)/C=C/c1c(-c2cc(Cl)ccc2Cl)nc2sc(C(F)(F)F)nn12)C(F)(F)F (centres unmarked) [Example 0792]
chromatographic logP ([1]; read-out: Physical data: logP): 4.13 | pest or weed control at 500 g/ha [4]: 100%

CC(NC(=O)/C=C/c1c(-c2ccc(Cl)c(Cl)c2)nc2sc(C(F)(F)F)nn12)c1ccccn1 (centres unmarked) [Example 0793]
chromatographic logP ([1]; read-out: Physical data: logP): 3.26 | pest or weed control at 500 g/ha [3]: 100%

CCN(CC)C(=O)/C=C/c1c(-c2ccccc2)nc2sc(C(F)(F)F)nn12 [Example 0912]
Efficacy in % [2]: 95% | Efficacy in % [5]: 93%

CC(C)CN(C)C(=O)/C=C/c1c(-c2ccccc2)nc2sc(C(F)(F)F)nn12 [Example 0913]
Efficacy in % [2]: 90%

From patent publication US20090118286A1, “Heterobicyclic Acrylamides” (Bayer Cropscience AG, priority 2005, published 2009)
